Experimental data from publication PMC11530689, “Anti colorectal cancer activity and in silico studies of novel pyridine nortopsentin analog as cyclin dependent kinase 6 inhibitor” (Scientific Reports, 2024).

What was measured:
Experiment in all cases: NCI 60 cell line screen
HCT-116 = type: cell-based, human; settings: HCT-116, Colon Cancer; single concentration 10^−5 M
Method: (§1) The cytotoxic activity of nortopsintin analogs (4a-4j) was determined by the national cancer institute (NCI, Bethesda, Maryland, USA) against 60 different cancer cell lines at a single concentration of (10^-5 M). For the determination of IC50 value, we used MTT assay kit (Sigma) according to the manufacturer's protocol. HCT-116 cells were seeded into a 96-well plate at a concentration of 20,000 cells/well. After 24 h, the media was aspirated and replaced with serum-free media containing serial dilutions of the 4i compound. […] The percentage of cytotoxicity was calculated using the following equation: % Cytotoxicity = [1 - ([…])] × 100.

UACC-62 = type: cell-based; settings: UACC-62, Melanoma; single concentration 10^−5 M
Method: as §1

PC-3 = type: cell-based; settings: PC-3, Prostate Cancer; single concentration 10^−5 M
Method: as §1

DU-145 = type: cell-based; settings: DU-145, Prostate Cancer; single concentration 10^−5 M
Method: as §1

SF-295 = type: cell-based; settings: SF-295, CNS Cancer; single concentration 10^−5 M
Method: as §1

NCI-H226 = type: cell-based; settings: NCI-H226, Non-Small Cell Lung Cancer; single concentration 10^−5 M
Method: as §1

MDA-MB-468 = type: cell-based; settings: MDA-MB-468, Breast Cancer; single concentration 10^−5 M
Method: as §1

HL-60 (TB) = type: cell-based; settings: Leukemia, single concentration 10^−5 M
Method: as §1

SK-MEL-2 = type: cell-based; settings: SK-MEL-2, Melanoma; single concentration 10^−5 M
Method: as §1

SK-MEL-28 = type: cell-based; settings: SK-MEL-28, Melanoma; single concentration 10^−5 M
Method: as §1

SNB-75 = type: cell-based; settings: SNB-75, CNS Cancer; single concentration 10^−5 M
Method: as §1

MDA-MB-435 = type: cell-based; settings: MDA-MB-435, Melanoma; single concentration 10^−5 M
Method: as §1

MDA-MB-231/ATCC = type: cell-based; settings: Breast Cancer, single concentration 10^−5 M
Method: as §1

MOLT-4 = type: cell-based; settings: MOLT-4, Leukemia; single concentration 10^−5 M
Method: as §1

COLO205 = type: cell-based; settings: COLO205, Colon Cancer; single concentration 10^−5 M
Method: as §1

TK-10 = type: cell-based; settings: TK-10, Renal Cancer; single concentration 10^−5 M
Method: as §1

786-0 = type: cell-based; settings: 786-0, Renal Cancer; single concentration 10^−5 M
Method: as §1

SK-OV-3 = type: cell-based; settings: SK-OV-3, Ovarian Cancer; single concentration 10^−5 M
Method: as §1

NCI-H522 = type: cell-based; settings: NCI-H522, Non-Small Cell Lung Cancer; single concentration 10^−5 M
Method: as §1

HCC-2998 = type: cell-based; settings: HCC-2998, Colon Cancer; single concentration 10^−5 M
Method: as §1

HT29 = type: cell-based; settings: HT29, Colon Cancer; single concentration 10^−5 M
Method: as §1

CAKI-1 = type: cell-based; settings: CAKI-1, Renal Cancer; single concentration 10^−5 M
Method: as §1

RXF 393 = type: cell-based; settings: RXF 393, Renal Cancer; single concentration 10^−5 M
Method: as §1

M14 = type: cell-based; settings: M14, Melanoma; single concentration 10^−5 M
Method: as §1

OVCAR-4 = type: cell-based; settings: OVCAR-4, Ovarian Cancer; single concentration 10^−5 M
Method: as §1

BT-549 = type: cell-based; settings: BT-549, Breast Cancer; single concentration 10^−5 M
Method: as §1

RPMI-8226 = type: cell-based; settings: RPMI-8226, Leukemia; single concentration 10^−5 M
Method: as §1

U251 = type: cell-based; settings: U251, CNS Cancer; single concentration 10^−5 M
Method: as §1

UACC-257 = type: cell-based; settings: UACC-257, Melanoma; single concentration 10^−5 M
Method: as §1

NCI-H322M = type: cell-based; settings: Non-Small Cell Lung Cancer, single concentration 10^−5 M
Method: as §1

HS 578T = type: cell-based; settings: Breast Cancer, single concentration 10^−5 M
Method: as §1

NCI-H23 = type: cell-based; settings: NCI-H23, Non-Small Cell Lung Cancer; single concentration 10^−5 M
Method: as §1

NCI-H460 = type: cell-based; settings: NCI-H460, Non-Small Cell Lung Cancer; single concentration 10^−5 M
Method: as §1

A549/ATCC = type: cell-based; settings: Non-Small Cell Lung Cancer, single concentration 10^−5 M
Method: as §1

LOX IMVI = type: cell-based; settings: Melanoma, single concentration 10^−5 M
Method: as §1

OVCAR-5 = type: cell-based; settings: OVCAR-5, Ovarian Cancer; single concentration 10^−5 M
Method: as §1

T-47D = type: cell-based; settings: Breast Cancer, single concentration 10^−5 M
Method: as §1

Row | SMILES | Growth % (HCT-116) [%] | Growth % (UACC-62) [%] | Growth % (PC-3) [%] | Growth % (DU-145) [%] | Growth % (SF-295) [%] | Growth % (NCI-H226) [%] | Growth % (MDA-MB-468) [%] | Growth % (HL-60 (TB)) [%] | Growth % (SK-MEL-2) [%] | Growth % (SK-MEL-28) [%] | Growth % (SNB-75) [%] | Growth % (MDA-MB-435) [%] | Growth % (MDA-MB-231/ATCC) [%] | Growth % (MOLT-4) [%] | Growth % (COLO205) [%] | Growth % (TK-10) [%] | Growth % (786-0) [%] | Growth % (SK-OV-3) [%] | Growth % (NCI-H522) [%] | Growth % (HCC-2998) [%] | other results
1 | N#Cc1c(-c2ccc(O)cc2)cc(-c2c[nH]c3ccccc23)nc1-c1c[nH]c2ccccc12 [4j] | 105.38 | 96.73 | 98.38 | 104.31 | 87.00 | 86.10 | 101.94 | 107.76 | 100.11 | 76.45 | 90.85 | 90.35 | 92.33 | 87.60 | 111.37 | 149.07 | 101.37 | 96.54 | 85.59 | 126.05 | Growth % (HT29): 111.48%; Growth % (CAKI-1): 90.60%; Growth % (RXF 393): 83.24%; Growth % (M14): 100.26%; Growth % (OVCAR-4): 94.07%; Growth % (BT-549): 96.81%; Growth % (RPMI-8226): 101.54%; Growth % (U251): 96.90%; Growth % (UACC-257): 108.53%; Growth % (NCI-H322M): 101.04%; Growth % (HS 578T): 89.18%; Growth % (NCI-H23): 89.30%; Growth % (NCI-H460): 103.74%; Growth % (A549/ATCC): 105.12%; Growth % (LOX IMVI): 62.75%; Growth % (OVCAR-5): 108.44%; Growth % (T-47D): 98.31%
2 | N#Cc1c(-c2ccc(Cl)cc2)cc(-c2c[nH]c3ccccc23)nc1-c1c[nH]c2ccccc12 [4c] | 106.26 | 89.22 | 100.13 | 108.08 | 99.60 | 96.15 | 102.95 | 102.90 | 103.64 | 103.30 | 100.87 | 106.56 | 97.80 | 99.33 | 106.5 | 138.81 | 102.38 | 91.24 | 96.57 | 117.80 | Growth % (HT29): 107.41%; Growth % (CAKI-1): 87.84%; Growth % (RXF 393): 114.27%; Growth % (M14): 102.44%; Growth % (OVCAR-4): 106.75%; Growth % (BT-549): 113.43%; Growth % (RPMI-8226): 102.27%; Growth % (U251): 99.27%; Growth % (UACC-257): 108.88%; Growth % (NCI-H322M): 103.02%; Growth % (HS 578T): 100.65%; Growth % (NCI-H23): 89.48%; Growth % (NCI-H460): 106.15%; Growth % (A549/ATCC): 100.29%; Growth % (LOX IMVI): 101.39%; Growth % (OVCAR-5): 105.15%; Growth % (T-47D): 100.54%
